Measured values reported in ChEMBL document CHEMBL1921760, “Design, synthesis and biological evaluation of 6-pyridylmethylaminopurines as CDK inhibitors” (Bioorg Med Chem, 2011).
Activity calls are given as the source filed them. The calls are words filed in the database; no cut-off is given here.

What was measured:
[1] = test system: CH1; test: Growth inhibition of doxorubicin-susceptible human CH1 cells after 96 hrs by sulforhodamine B assay; format: functional; conditions: CH1, 96 h
[2] = AUC in BALB/c mouse plasma at 50 mg/kg, iv after 24 hrs by LC-MS analysis; format: ADME, organism-based; set-up: time < 24 hr, dose 50 mg/kg, route intravenous
[3] = test system: HCT-116; test: Growth inhibition of human HCT116 cells after 96 hrs by sulforhodamine B assay; format: functional; conditions: HCT-116, 96 h
[4] = test system: A2780; test: Growth inhibition of cisplatin-resistant human A2780 cells after 96 hrs by sulforhodamine B assay; format: functional; conditions: A2780, 96 h
[5] = test system: Mus musculus; test: Ratio of Seliciclib clearance to compound clearance in BALB/c mouse plasma at 50 mg/kg, iv after 24 hrs by LC-MS analysis; format: ADME, organism-based; set-up: dose 50 mg/kg, route intravenous; conditions: in vivo
[6] = test system: CH1; test: Growth inhibition of doxorubicin-resistant human CH1 cells after 96 hrs by sulforhodamine B assay; format: functional; conditions: CH1, 96 h
[7] = Solubility of the compound in water; format: physicochemical; conditions: buffer
[8] = Clearance in BALB/c mouse plasma at 50 mg/kg, iv after 24 hrs by LC-MS analysis; format: ADME, organism-based; set-up: dose 50 mg/kg, route intravenous
[9] = molecular target: Cyclin-dependent kinase 4/cyclin D1 (Homo sapiens, UniProt P11802); test: Inhibition of CDK4/cyclin D1; format: protein-complex assay
Cyclin-dependent kinase 4/cyclin D1, sequence (P11802 whole entry): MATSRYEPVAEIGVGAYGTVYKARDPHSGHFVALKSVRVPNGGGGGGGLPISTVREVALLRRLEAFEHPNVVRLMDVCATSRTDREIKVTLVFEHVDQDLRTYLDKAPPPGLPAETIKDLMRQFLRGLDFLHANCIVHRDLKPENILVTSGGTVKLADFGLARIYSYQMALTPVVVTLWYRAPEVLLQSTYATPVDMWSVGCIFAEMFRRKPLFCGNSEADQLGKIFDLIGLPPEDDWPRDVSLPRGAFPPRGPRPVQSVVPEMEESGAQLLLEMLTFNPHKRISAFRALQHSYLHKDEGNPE
Cyclin-dependent kinase 4/cyclin D1, sequence (P24385 whole entry, further chain): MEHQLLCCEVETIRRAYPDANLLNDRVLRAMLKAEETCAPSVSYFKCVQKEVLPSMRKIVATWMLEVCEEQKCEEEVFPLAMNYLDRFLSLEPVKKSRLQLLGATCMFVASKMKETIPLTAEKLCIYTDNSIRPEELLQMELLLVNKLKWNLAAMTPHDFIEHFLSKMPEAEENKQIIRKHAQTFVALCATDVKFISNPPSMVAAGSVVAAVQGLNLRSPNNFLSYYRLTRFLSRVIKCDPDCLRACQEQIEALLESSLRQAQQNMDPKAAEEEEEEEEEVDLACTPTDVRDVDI

[10] = Half life in BALB/c mouse plasma at 50 mg/kg, iv by LC-MS analysis; format: ADME, organism-based; set-up: dose 50 mg/kg, route intravenous
[11] = molecular target: Cyclin-dependent kinase 7/ cyclin H (Homo sapiens, UniProt P50613); test: Inhibition of CDK7/cyclin H; format: protein-complex assay
Cyclin-dependent kinase 7/ cyclin H, sequence (P51946 whole entry): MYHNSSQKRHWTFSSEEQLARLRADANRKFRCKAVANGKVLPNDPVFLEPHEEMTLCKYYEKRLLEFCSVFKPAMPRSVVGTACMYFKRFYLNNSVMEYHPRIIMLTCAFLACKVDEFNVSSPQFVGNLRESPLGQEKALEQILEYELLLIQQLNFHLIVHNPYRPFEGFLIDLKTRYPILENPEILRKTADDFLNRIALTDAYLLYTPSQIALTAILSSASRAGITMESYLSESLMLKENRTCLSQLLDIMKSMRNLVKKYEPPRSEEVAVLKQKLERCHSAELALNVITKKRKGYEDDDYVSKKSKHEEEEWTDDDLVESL
Cyclin-dependent kinase 7/ cyclin H, sequence (P50613 whole entry): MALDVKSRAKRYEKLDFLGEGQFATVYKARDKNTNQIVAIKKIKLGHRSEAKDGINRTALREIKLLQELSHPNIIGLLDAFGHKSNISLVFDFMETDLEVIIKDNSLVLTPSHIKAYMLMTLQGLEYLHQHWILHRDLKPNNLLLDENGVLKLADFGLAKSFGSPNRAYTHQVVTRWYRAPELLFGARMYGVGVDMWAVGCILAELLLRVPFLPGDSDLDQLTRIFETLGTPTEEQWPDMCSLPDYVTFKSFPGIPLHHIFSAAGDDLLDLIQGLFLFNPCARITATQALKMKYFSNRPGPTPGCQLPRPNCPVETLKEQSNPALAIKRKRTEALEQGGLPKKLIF

[12] = molecular target: Cyclin-dependent kinase 1/cyclin B1 (Homo sapiens, UniProt P06493); test: Inhibition of CDK1/cyclin B; format: protein-complex assay
Cyclin-dependent kinase 1/cyclin B1, sequence (P06493 whole entry): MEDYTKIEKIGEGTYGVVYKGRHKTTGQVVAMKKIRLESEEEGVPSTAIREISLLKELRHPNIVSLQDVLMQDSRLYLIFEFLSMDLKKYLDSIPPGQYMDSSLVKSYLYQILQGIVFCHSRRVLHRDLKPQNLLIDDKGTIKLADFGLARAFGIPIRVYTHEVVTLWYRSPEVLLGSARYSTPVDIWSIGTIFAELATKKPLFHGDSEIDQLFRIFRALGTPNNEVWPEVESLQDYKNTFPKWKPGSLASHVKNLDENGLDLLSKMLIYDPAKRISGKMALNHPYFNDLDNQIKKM
Cyclin-dependent kinase 1/cyclin B1, sequence (P14635 whole entry, further chain): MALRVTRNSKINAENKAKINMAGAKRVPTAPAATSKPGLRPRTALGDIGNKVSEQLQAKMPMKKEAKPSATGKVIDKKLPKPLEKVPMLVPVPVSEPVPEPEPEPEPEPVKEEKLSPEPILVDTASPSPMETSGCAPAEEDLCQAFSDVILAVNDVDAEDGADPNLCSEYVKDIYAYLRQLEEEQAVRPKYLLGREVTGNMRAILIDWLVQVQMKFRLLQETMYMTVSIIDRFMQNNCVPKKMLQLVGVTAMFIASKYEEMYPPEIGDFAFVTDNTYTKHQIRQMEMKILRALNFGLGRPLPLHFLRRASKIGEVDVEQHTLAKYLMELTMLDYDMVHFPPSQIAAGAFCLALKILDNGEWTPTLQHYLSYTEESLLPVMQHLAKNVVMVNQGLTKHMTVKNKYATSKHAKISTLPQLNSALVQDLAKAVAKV

[13] = Oral bioavailability in BALB/c mouse at 50 mg/kg by LC-MS analysis; format: ADME, organism-based; conditions: in vivo
[14] = molecular target: CDK9/cyclin T1 (Homo sapiens, UniProt P50750); test: Inhibition of CDK9/cyclin T1; format: protein-complex assay
CDK9/cyclin T1, sequence (O60563 whole entry): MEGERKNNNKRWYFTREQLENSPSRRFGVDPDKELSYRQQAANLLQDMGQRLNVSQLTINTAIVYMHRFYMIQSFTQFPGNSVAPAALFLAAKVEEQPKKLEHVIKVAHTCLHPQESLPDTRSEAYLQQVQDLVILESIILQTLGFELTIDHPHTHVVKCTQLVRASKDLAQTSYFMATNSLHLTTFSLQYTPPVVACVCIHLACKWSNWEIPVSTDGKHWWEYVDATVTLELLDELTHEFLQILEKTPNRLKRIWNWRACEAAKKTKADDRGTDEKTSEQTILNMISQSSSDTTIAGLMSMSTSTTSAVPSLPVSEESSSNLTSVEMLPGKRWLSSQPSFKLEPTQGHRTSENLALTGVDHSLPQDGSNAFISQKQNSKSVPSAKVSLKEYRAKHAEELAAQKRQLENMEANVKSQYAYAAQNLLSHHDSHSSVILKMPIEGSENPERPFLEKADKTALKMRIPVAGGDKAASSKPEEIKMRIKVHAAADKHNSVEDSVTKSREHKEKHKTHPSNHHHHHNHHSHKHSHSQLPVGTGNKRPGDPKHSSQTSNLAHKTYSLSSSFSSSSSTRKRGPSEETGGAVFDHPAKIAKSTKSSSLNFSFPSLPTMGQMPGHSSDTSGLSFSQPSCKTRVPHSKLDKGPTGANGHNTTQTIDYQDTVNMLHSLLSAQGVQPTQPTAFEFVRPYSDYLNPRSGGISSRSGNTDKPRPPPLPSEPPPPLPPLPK
CDK9/cyclin T1, sequence (P50750 whole entry): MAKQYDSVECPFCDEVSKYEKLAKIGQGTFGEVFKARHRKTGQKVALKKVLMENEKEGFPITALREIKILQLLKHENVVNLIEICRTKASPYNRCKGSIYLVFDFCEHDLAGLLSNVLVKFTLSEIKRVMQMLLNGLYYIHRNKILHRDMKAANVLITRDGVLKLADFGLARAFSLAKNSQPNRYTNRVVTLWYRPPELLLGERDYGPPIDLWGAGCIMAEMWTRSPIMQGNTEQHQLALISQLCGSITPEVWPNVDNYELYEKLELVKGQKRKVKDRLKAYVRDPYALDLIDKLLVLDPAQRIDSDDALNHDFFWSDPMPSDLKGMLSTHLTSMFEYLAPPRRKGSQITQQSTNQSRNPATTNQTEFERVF

[15] = test system: HT-29; test: Growth inhibition of human HT-29 cells after 96 hrs by sulforhodamine B assay; format: functional; conditions: HT-29, 96 h
[16] = Inhibition of PKA
[17] = test system: A2780; test: Growth inhibition of cisplatin-susceptible human A2780 cells after 96 hrs by sulforhodamine B assay; format: functional; conditions: A2780, 96 h
[18] = test system: KM12; test: Growth inhibition of human KM12 cells after 96 hrs by sulforhodamine B assay; format: functional; conditions: KM12, 96 h
[19] = Cmax in BALB/c mouse plasma at 50 mg/kg, iv after 24 hrs by LC-MS analysis; format: ADME, organism-based; set-up: dose 50 mg/kg, route intravenous
[20] = Volume of distribution in BALB/c mouse plasma at 50 mg/kg, iv after 24 hrs by LC-MS analysis; format: ADME, organism-based; set-up: dose 50 mg/kg, route intravenous
[21] = Metabolic stability in mouse liver microsomes assessed as compound metabolized at 10 uM after 30 mins by LC-MS analysis; format: ADME, Microsome; conditions: read-out: Activity
[22] = molecular target: Cyclin-dependent kinase 2/cyclin E1 (Homo sapiens, UniProt P24941); test: Inhibition of CDK2/cyclin E; format: protein-complex assay
[23] = test system: HCT-116; test: Antitumor activity against human HCT116 cells xenografted in NCR athymic mouse assessed as reduction in tumor volume at 50 mg/kg, po twice daily at 12 to 14 hrs intervals measured after 12 days relative to vehicle treated control; format: functional; set-up: scale not given: the % may be the effect or the level left
[24] = test system: HCT-116; test: Antitumor activity against human HCT116 cells xenografted in NCR athymic mouse assessed as growth delay at 50 mg/kg, po twice daily at 12 to 14 hrs intervals measured after 12 days relative to vehicle treated control; format: functional, organism-based; set-up: dose 50 mg/kg
[25] = test system: HT-29; test: Reduction of RNA polymerase 2 expression in human HT-29 cells; format: functional, cell-based
[26] = test system: HT-29; test: Inhibition of CDK-mediated RB phosphorylation at Ser-780 in human HT29 cells at 0.1 to 20 uM after 24 hrs by Western blotting relative to control; format: cell-based
[27] = test system: HT-29; test: Cell cycle arrest in human HT-29 cells assessed as reduction at S phase at 3.3 uM up to 16 hrs measuring distribution of bromodeoxyuridine incorporation by flow cytometry; format: functional, cell-based
[28] = test system: HT-29; test: Cell cycle arrest in human HT-29 cells assessed as accumulation at G2/M phase at 3.3 uM up to 16 hrs measuring distribution of bromodeoxyuridine incorporation by flow cytometry; format: functional, cell-based

| SMILES | GI50 [1] [µM] | AUC at 24 h [2] [µM·h] | GI50 [3] [µM] | GI50 [4] [µM] | Ratio [5] | GI50 [6] [µM] | solubility [7] | clearance [8] [mL/min] | IC50 [9] [µM] | half-life [10] [min] | IC50 [11] [µM] | IC50 [12] [µM] | bioavailability [13] [%] | IC50 [14] [µM] | GI50 [15] [µM] | IC50 [16] [µM] | GI50 [17] [µM] | GI50 [18] [µM] | Cmax [19] [µM] | Vd [20] [L] | other results |
| --- | --- | --- | --- | --- | --- | --- | --- | --- | --- | --- | --- | --- | --- | --- | --- | --- | --- | --- | --- | --- | --- |
| CC[C@@H](Nc1nc(NCc2cccnc2)c2ncn(C(C)C)c2n1)C(C)(C)O | 20 | 223 | 13 | 21 | 2 | 21 | soluble | 0.2 | 7.5 | 36 | 3.1 | 6.2 | 15 | 0.21 | 19 | > 200 | 10 | 13 | 275 | 0.01 | metabolised at 0.5 h, 10 µM [21]: 16%; IC50 [22]: 0.2 µM |
| CC[C@H](Nc1nc(NCc2cccnc2)c2ncn(C(C)C)c2n1)C(C)(C)O | 5 | 109 | 4.1 | 5.8 | 2 | 6.8 | soluble | 0.4 | 12 | 24 | 2.5 | 4.4 | 15 | 0.16 | 5.4 | > 200 | 4 | 5.4 | 215 | 0.012 | metabolised at 0.5 h, 10 µM [21]: 22%; IC50 [22]: 0.07 µM |
| CC[C@H](Nc1nc(NCc2cccnc2)c2ncn(C(C)C)c2n1)[C@@H](C)O [listing 1 of 2 here] |  | 298 |  |  |  |  | soluble | 0.15 |  | 168 |  |  | 15 |  |  |  |  |  | 268 | 0.013 | Activity [23]: 49% |
| CC[C@H](Nc1nc(NCc2cccnc2)c2ncn(C(C)C)c2n1)[C@@H](C)O [listing 2 of 2 here] |  |  |  |  |  |  |  |  |  |  |  |  |  |  |  |  |  |  |  |  | Activity [24]: Active; Activity [25]: Active; inhibition [26]: Active; Activity [27]: Active; Activity [28]: Active |
